Data taken from paper PMC6941357, “An in vitro toolbox to accelerate anti-malarial drug discovery and development” (Malaria Journal, 2020).

Key:
[1] = Octanol/pH 7.4 buffer partition coefficient, shake flask; conditions: octanol/pH 7.4 buffer, shake flask, 37 °C
Summary of the method: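 Both phases were measured by LC-MS, the aqueous phase after re-centrifugation, and the partition coefficient was taken as the octanol-to-buffer concentration ratio over two sampling times. Equal volumes of octanol, holding compound at two dilutions of a 3-30 mg/mL stock, and pH 7.4 phosphate/NaCl buffer were mixed at 37 °C.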

physchem = conditions: for An (absorption number): Peff × tres/R, minimum 1; for Ssi (estimated solubility in the small intestine): based on measured FaSSIF solubility; for Permeability classification: based on ref 80 and control compounds; for Predicted human Peff: from Caco-2 Papp via calibration plot
From the text: Predicted Peff values were obtained from a calibration plot of literature Peff values vs measured Caco-2 Papp using either buffer or plasma as the transport medium (see Results section).

CYP1A2 = molecular target: T1, CYP1A2 (Homo sapiens, UniProt P05177); test: in vitro
T1 sequence (P05177 1-516): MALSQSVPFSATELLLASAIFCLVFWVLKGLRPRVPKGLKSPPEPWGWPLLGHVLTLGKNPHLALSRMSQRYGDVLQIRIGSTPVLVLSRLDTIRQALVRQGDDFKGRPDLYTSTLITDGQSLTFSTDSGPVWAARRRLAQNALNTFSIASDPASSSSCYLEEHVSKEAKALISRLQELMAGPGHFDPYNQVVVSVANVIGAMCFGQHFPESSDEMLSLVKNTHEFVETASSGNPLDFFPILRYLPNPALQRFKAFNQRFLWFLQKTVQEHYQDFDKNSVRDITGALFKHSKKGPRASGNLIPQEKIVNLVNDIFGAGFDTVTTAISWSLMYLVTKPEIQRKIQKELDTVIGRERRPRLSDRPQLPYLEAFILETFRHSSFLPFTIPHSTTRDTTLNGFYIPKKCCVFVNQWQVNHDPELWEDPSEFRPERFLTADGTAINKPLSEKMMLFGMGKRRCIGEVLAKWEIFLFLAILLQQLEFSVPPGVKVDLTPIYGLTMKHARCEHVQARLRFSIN
Method: (§1) The CYP inhibition assay was based on a previous publication with minor modifications. The method uses human liver microsomes and a substrate-specific interaction approach which relies on the formation of a metabolite that is mediated by a specific CYP isoform. The specific CYP-mediated metabolic pathways, substrates, substrate Km values, positive control inhibitors and specific incubation conditions are shown in Additional file 1: Table S4. […] Samples were quenched by the addition of ice-cold acetonitrile containing diazepam as the analytical internal standard. Concentrations of the substrate-specific metabolites in quenched samples were determined by LC–MS (Additional file 1: Table S5) relative to calibration standards prepared in quenched microsomal matrix.
(§2) The inhibitory effect of each test compound and positive control inhibitor was based on the reduction in the formation of the specific CYP-mediated metabolite (represented as percent inhibition of enzyme activity) relative to metabolite formation in the absence of inhibitor (i.e. control for maximal enzyme activity). […] The Km was determined under the same incubation conditions by measuring the rate of metabolite formation (pmol/min/mg protein) as a function of substrate concentration (Additional file 1: Table S4).

CYP2C19 = CYP2C19 (Homo sapiens, UniProt P33261); test: in vitro
CYP2C19, sequence (P33261 whole entry): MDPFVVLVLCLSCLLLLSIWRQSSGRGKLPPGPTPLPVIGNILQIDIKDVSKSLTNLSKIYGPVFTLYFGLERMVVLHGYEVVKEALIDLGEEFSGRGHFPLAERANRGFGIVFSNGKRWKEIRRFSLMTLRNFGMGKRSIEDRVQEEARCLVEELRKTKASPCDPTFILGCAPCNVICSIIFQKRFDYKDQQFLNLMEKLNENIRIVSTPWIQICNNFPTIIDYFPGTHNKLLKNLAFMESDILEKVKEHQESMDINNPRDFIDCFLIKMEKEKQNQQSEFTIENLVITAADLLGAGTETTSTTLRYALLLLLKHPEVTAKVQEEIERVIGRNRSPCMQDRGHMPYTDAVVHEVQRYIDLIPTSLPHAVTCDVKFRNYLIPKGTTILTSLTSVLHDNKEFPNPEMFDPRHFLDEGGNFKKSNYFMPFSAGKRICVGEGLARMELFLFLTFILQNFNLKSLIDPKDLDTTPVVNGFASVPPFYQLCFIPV
Method: as §1, §2

CYP2C9 = CYP2C9 (Homo sapiens, UniProt P11712); test: in vitro
CYP2C9, sequence (P11712 whole entry): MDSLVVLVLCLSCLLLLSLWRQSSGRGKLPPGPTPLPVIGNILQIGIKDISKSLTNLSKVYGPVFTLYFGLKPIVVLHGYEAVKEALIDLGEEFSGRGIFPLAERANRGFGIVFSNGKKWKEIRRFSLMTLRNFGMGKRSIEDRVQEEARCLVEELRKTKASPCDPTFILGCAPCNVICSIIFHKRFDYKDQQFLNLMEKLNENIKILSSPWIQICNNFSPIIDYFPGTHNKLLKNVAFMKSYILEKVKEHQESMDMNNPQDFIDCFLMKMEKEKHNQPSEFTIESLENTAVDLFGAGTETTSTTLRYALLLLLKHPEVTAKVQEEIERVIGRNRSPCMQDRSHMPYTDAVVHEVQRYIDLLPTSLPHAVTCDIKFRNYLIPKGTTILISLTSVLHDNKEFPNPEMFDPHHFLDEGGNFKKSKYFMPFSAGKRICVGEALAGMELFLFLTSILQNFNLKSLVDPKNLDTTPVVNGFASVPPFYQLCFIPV
Method: as §1, §2

CYP2D6 = CYP2D6 (Homo sapiens, UniProt P10635); test: in vitro
CYP2D6, sequence (P10635 whole entry): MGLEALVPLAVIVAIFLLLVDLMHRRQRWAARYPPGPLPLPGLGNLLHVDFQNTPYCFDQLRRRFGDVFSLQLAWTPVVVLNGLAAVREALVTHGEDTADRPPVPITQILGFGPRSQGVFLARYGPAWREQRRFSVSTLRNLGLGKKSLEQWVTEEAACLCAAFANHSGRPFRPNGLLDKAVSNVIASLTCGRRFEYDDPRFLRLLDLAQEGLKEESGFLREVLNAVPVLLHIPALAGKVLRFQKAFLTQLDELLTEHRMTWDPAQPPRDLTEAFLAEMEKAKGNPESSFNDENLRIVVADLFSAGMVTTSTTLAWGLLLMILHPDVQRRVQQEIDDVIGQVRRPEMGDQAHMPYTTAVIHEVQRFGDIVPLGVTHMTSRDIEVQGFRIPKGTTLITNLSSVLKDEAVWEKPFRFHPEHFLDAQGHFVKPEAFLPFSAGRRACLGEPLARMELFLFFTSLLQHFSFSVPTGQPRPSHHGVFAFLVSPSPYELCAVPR
Method: as §1, §2

CYP3A4 = CYP3A4 (Homo sapiens, UniProt P08684); test: in vitro
CYP3A4, sequence (P08684 whole entry): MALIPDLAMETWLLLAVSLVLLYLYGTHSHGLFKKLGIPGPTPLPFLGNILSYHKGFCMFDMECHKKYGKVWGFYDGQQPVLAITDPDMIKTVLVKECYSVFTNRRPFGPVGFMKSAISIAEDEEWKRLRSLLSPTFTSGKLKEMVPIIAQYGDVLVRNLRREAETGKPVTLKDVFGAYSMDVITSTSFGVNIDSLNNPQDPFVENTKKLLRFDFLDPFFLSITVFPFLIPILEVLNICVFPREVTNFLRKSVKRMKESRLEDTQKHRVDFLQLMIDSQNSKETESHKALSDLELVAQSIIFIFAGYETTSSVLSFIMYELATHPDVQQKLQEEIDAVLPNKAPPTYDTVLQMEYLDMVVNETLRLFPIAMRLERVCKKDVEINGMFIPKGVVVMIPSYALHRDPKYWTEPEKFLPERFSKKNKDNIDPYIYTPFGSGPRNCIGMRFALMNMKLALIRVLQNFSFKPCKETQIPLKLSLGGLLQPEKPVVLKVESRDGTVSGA
Method: as §1, §2

| Compound | Measured Log D7.4 [1] | SLAD (physchem) [mg] | An (absorption number) (physchem) | Ssi (estimated solubility in the small intestine) (physchem) [µg/mL] | Permeability classification (physchem) | Predicted human Peff (physchem) | CYP1A2 % inhibition at max conc (CYP1A2; microsomes) | IC50 (CYP1A2; microsomes) [µM] | CYP2C19 % inhibition at max conc (CYP2C19; microsomes) | IC50 (CYP2C19; microsomes) [µM] | CYP2C9 % inhibition at max conc (CYP2C9; microsomes) | IC50 (CYP2C9; microsomes) [µM] | CYP2D6 % inhibition at max conc (CYP2D6; microsomes) | IC50 (CYP2D6; microsomes) [µM] | CYP3A4 (midaz) % inhibition at max conc (CYP3A4; microsomes) | CYP3A4 (test) % inhibition at max conc (CYP3A4; microsomes) | IC50 (CYP3A4; microsomes) [µM] | Ki (CYP2D6; microsomes) [µM] | further results |
| --- | --- | --- | --- | --- | --- | --- | --- | --- | --- | --- | --- | --- | --- | --- | --- | --- | --- | --- | --- |
| CCc1nc(N)nc(N)c1OCCCOc1ccccc1CCC(=O)O.Cl [P218] | 0.080 | 204 | 1.0 | 408 | Low (< 50% absorption (low)) | 0.24 10^−4 cm/s | nmi | > 20 | nmi | > 20 | nmi | > 20 | nmi | > 20 | nmi | nmi | > 20 |  |  |
| COc1cc2[nH]c(C)c(-c3ccc(Oc4ccc(OC(F)(F)F)cc4)cc3)c(=O)c2cc1Cl [ELQ300] |  | 3 | 13 | 0.520 | High (> 85% absorption (high)) | 11 10^−4 cm/s | nmi | > 20 | 41% | > 20 |  | 7.5 |  | 8 |  | nmi | > 20 | 5 | Ki (CYP2C9; microsomes): 5.4 µM |
| CN(C)C[c-]1cccc1CNc1ccnc2cc(Cl)ccc12.[Fe+2].c1cc[cH-]c1 (stereo not shown) [Ferroquine] | 3.39 |  | 2.7 | 320 | High (> 85% absorption (high)) | 2.2 10^−4 cm/s | nmi | > 20 | nmi | > 20 | nmi | > 20 |  | 0.83 |  | 42% |  | 0.52 | SLAD (physchem; Ssi × V (500 mL) × Mp): 426 mg; Ki (CYP3A4; microsomes): 5.2 µM |
| CC(C)(C)NCc1cc(C(C)(C)C)cc(-c2cnc(C(F)(F)F)c(F)c2)c1O [JPC3210] | 5.30 | 51 | 13 | 7.60 | High (> 85% absorption (high)) | 11 10^−4 cm/s | nmi | > 20 | nmi | > 20 | nmi | > 20 |  | 0.7 | nmi | nmi | > 20 | 0.43 |  |
| CC(C)(C)NCc1cc(Nc2ccnc3cc(Cl)ccc23)c2c(c1O)CCCC2 [Naphthoquine] | 4.18 | 2250 | 11 | 410 | High (> 85% absorption (high)) | 9.2 10^−4 cm/s | 33% | > 20 | nmi | > 20 | nmi | > 20 |  | 1.1 | 41% | 38% | > 20 | 0.68 |  |
| Cc1cc(Nc2ccc(C(F)(F)F)nc2)n2nc(C(C)(F)F)nc2n1 [DSM421] |  | 182 | 3.9 | 93.0 | High (> 85% absorption (high)) | 3.3 10^−4 cm/s |  |  |  |  |  |  |  |  |  |  |  |  |  |
| CCCCN(CCCC)CC(O)c1cc(Cl)cc2c1-c1ccc(Cl)cc1/C2=C/c1ccc(Cl)cc1 (stereo not shown) [Lumefantrine] |  |  |  |  |  |  | nmi |  | nmi |  | nmi |  |  |  | nmi | nmi |  |  | IC50 (CYP1A2): > 20 µM; IC50 (CYP2C19): > 20 µM; IC50 (CYP2C9): > 20 µM; IC50 (CYP2D6): 2.9 µM; Ki (CYP2D6): 1.8 µM; IC50 (CYP3A4; CYP3A4 (midaz) IC50, human liver microsomes, CYP3A4 (midaz), highest concentration tested 20 µM): > 20 µM; IC50 (CYP3A4; CYP3A4 (test) IC50, human liver microsomes, CYP3A4 (test), highest concentration tested 20 µM): > 20 µM |
| O=C(NCCN1CCCC1)c1cc(-c2ccc(CN3CCOCC3)cc2)nc2ccc(F)cc12 [M5717] |  | > 6050 | 4.0 | > 3000 | High (> 85% absorption (high)) | 3.4 10^−4 cm/s | nmi | > 20 | nmi | > 20 | nmi | > 20 | nmi | > 20 | nmi | nmi | > 20 |  |  |
| CS(=O)(=O)O.FC1CCN(CCOc2ccc(C3CCC4(CC3)OOC3(OO4)C4CC5CC(C4)CC3C5)cc2)CC1 (stereo not shown) [TDD-E209] |  | 579 | 13 | 87.0 | High (> 85% absorption (high)) | 11 10^−4 cm/s |  |  |  |  |  |  |  |  |  |  |  |  |  |
| COc1cc(N[C@H](C)CCCN)c2nccc(C)c2c1Oc1ccc(Cl)c(Cl)c1 [NPC1161B] |  |  |  |  |  |  |  | 6.5 |  | 9.6 | 37% | > 20 | 39% | > 20 | 37% |  |  |  | Ki (CYP1A2; microsomes): 3.8 µM; Ki (CYP2C19; microsomes): 5.7 µM; Ki (CYP3A4; microsomes): 8.2 µM |
